A value given as a limit tells only on which side of the number the result lay.

The target in the first assay is T1, ER (Homo sapiens, UniProt P03372).
T1 construct: host or cells: T47D and MCF7 human breast cancer cells
T1 sequence (P03372 1-595): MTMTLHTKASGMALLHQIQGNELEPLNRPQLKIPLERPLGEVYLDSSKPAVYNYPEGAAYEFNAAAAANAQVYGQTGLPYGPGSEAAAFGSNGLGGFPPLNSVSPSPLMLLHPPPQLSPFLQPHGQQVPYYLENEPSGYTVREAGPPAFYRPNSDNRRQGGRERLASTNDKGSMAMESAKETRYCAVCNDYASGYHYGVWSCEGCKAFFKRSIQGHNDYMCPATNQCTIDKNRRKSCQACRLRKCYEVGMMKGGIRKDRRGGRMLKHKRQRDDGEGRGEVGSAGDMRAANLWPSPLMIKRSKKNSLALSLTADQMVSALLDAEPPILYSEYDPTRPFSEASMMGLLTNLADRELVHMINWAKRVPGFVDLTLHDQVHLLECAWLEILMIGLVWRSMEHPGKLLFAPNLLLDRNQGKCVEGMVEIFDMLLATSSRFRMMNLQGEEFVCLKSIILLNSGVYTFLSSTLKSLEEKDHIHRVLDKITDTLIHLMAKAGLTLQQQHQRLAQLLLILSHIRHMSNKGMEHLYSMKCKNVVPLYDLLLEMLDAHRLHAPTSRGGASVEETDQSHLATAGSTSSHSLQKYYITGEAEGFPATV
Put plainly: ER degradation activity, in-cell western blot analysis in T47D cells. It counts as cell-based. The following applies: 16 hours, Table A does not say which cell line (T47D or MCF7), read-out: Potency (DC50). The essentials: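 T47D cells grown in DMEM with 10% FBS were treated with compounds for 16 hours at 0.5% DMSO final. ER was detected by in-cell western using 680/800 near-infrared secondary antibodies. Residual ER is given as percent of untreated and DMSO-treated wells set to 100%.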
As a reminder, the DC50 is the midpoint of the concentration-degradation curve. `C[C@@H]1Cc2cc(O)ccc2[C@@H](c2c(F)cc(N3CCC4(CCN(CC(=O)N5Cc6cc7c(cc6C5)C(=O)N(C5CCC(=O)NC5=O)C7)C4)CC3)cc2F)N1CC(C)(F)F` (stereo partly drawn) [E 34, 3-(6-(2-(8-(4-((1S,3R)-2-(2,2-difluoropropyl)-6-hydroxy-3-methyl-1,2,3,4-tetrahydroisoquinolin-1-yl)-3,5-difluorophenyl)-2,8-diazaspiro[4.5]decan-2-yl)acetyl)-1-oxo-3,5,6,7-tetrahydropyrrolo[3,4-f]isoindol-2(1H)-yl)piperidine-2,6-dione]: the DC50 was 10 to 100 nM. On the same count and under the same terms, in the case of `O=C1CCC(N2C(=O)c3cc4c(cc3C2=O)CN(CC(=O)N2CCC(Oc3ccc([C@@H]5c6ccc(O)cc6CC[C@@H]5c5ccccc5)cc3)CC2)C4)C(=O)N1` (stereo partly drawn) [E 219, 2-(2,6-dioxopiperidin-3-yl)-6-(2-(4-(4-((1R,2S)-6-hydroxy-2-phenyl-1,2,3,4-tetrahydronaphthalen-1-yl)phenoxy)piperidin-1-yl)-2-oxoethyl)-6,7-dihydropyrrolo[3,4-f]isoindole-1,3(2H,5H)-dione] it was more than 100 nM; in that of `C[C@@H]1Cc2c([nH]c3ccccc23)[C@@H](c2c(F)cc(C3CCC(C(=O)N4CCC(CN5Cc6cc7c(cc6C5)C(=O)N(C5CCC(=O)NC5=O)C7=O)CC4)CC3)cc2F)N1CC(F)F` (stereo partly drawn) [E248, 6-((1-(4-(4-((1R,3R)-2-(2,2-difluoroethyl)-3-methyl-2,3,4,9-tetrahydro-1H-pyrido[3,4-b]indol-1-yl)-3,5-difluorophenyl)cyclohexane-1-carbonyl)piperidin-4-yl)methyl)-2-(2,6-dioxopiperidin-3-yl)-6,7-dihydropyrrolo[3,4-f]isoindole-1,3(2H,5H)-dione], more than 100 nM.

With `C[C@@H]1Cc2c([nH]c3ccccc23)[C@@H](c2c(F)cc(N3CCC(N4CCC(CN5Cc6cc7c(cc6C5)C(=O)N(C5CCC(=O)NC5=O)C7=O)CC4)CC3)cc2F)N1CC(F)F` (stereo partly drawn) [E 118, 6-((1′-(4-((1R,3R)-2-(2,2-difluoroethyl)-3-methyl-2,3,4,9-tetrahydro-1H-pyrido[3,4-b]indol-1-yl)-3,5-difluorophenyl)-[1,4′-bipiperidin]-4-yl)methyl)-2-(2,6-dioxopiperidin-3-yl)-6,7-dihydropyrrolo[3,4-f]isoindole-1,3(2H,5H)-dione], the DC50 was more than 100 nM.

Take `C[C@@H]1Cc2c([nH]c3ccccc23)[C@@H](c2c(F)cc(N3CCC4(CCN(C(=O)CN5Cc6cc7c(cc6C5)C(=O)N(C5CCC(=O)NC5=O)C7=O)CC4)CC3)cc2F)N1CC(C)(F)F` (stereo partly drawn) [E 253, 6-(2-(9-(4-((1R,3R)-2-(2,2-difluoropropyl)-3-methyl-2,3,4,9-tetrahydro-1H-pyrido[3,4-b]indol-1-yl)-3,5-difluorophenyl)-3,9-diazaspiro[5.5]undecan-3-yl)-2-oxoethyl)-2-(2,6-dioxopiperidin-3-yl)-6,7-dihydropyrrolo[3,4-f]isoindole-1,3(2H,5H)-dione]: the DC50 was less than 10 nM.

The assay is the same for the next values; noted with them: compounds 16 hours, Table A does not say whether T47D or MCF7, read-out: Potency (DC50).
On to `C[C@@H]1Cc2cc(O)ccc2[C@@H](c2c(F)cc(N3CCC(CN4CCC(N5Cc6cc7c(cc6C5)C(=O)N(C5CCC(=O)NC5=O)C7=O)CC4)CC3)cc2F)N1CC(F)F` (stereo partly drawn) [E 466, 6-(1-((1-(4-((1S,3R)-2-(2,2-difluoroethyl)-6-hydroxy-3-methyl-1,2,3,4-tetrahydroisoquinolin-1-yl)-3,5-difluorophenyl)piperidin-4-yl)methyl)piperidin-4-yl)-2-(2,6-dioxopiperidin-3-yl)-6,7-dihydropyrrolo[3,4-f]isoindole-1,3(2H,5H)-dione], for which the DC50 was more than 100 nM. On the same count and under the same terms, to `C[C@@H]1Cc2c([nH]c3ccccc23)[C@@H](c2cnc(N3CC4(CCC(CN5Cc6cc7c(cc6C5)C(=O)N(C5CCC(=O)NC5=O)C7=O)CC4)C3)nc2)N1CC(F)F` (stereo partly drawn) [E 472, 6-((2-(5-((1R,3R)-2-(2,2-difluoroethyl)-3-methyl-2,3,4,9-tetrahydro-1H-pyrido[3,4-b]indol-1-yl)pyrimidin-2-yl)-2-azaspiro[3.5]nonan-7-yl)methyl)-2-(2,6-dioxopiperidin-3-yl)-6,7-dihydropyrrolo[3,4-f]isoindole-1,3(2H,5H)-dione] belongs 10 to 100 nM.

Values taken from patent US20240190880A1 (THE REGENTS OF THE UNIVERSITY OF MICHIGAN, priority 2021, published 2024).
